Assay results as given in US11160798B2, “Neuroprotective CB2 receptor agonists” (THE CLEVELAND CLINIC FOUNDATION, priority 2012, dated 2021).

Tests used:
Format in all cases: in vivo, rat
[1] = tested on: CA1 neurons; assay: Long-term potentiation (LTP) in hippocampal CA1 slices; details: for average LTP: Aβ+MDA7 group (15 mg/kg i.p. 14 days), n=9
Description: (§1) Animals were divided into several groups ([…]). The Aβ1-40 group received bilateral intracerebral microinjection of Aβ1-40 fibrils once and saline intraperitoneally (i.p.) daily for 14 days. The Aβ1-40+MDA7 group received bilateral intracerebral microinjection of Aβ1-40 fibrils once and 15 mg/kg MDA7 i.p. daily for 14 days. Other cohorts received smaller doses of MDA7 (5 mg/kg or 1.5 mg/kg) i.p. daily for 14 days to determine the dose-response characteristics for MDA7. In other groups, AM630 (a CB2 antagonist) 5 mg/kg i.p. was administered daily for 14 days either alone (Aβ1-40+AM630 group) or 15 min prior to MDA7 (15 mg/kg i.p.) administration (Aβ1-40+MDA7+AM630 group) to rats injected with β1-40 fibrils. MDA7 group and control group received bilateral intracerebral microinjection of artificial cerebrospinal fluid (130 mM NaCl, 2.6 mM KCl. 4.3 mM MgCl2 and 1.8 mM CaCl2) once and 15 mg/kg MDA7 or saline i.p. daily for 14 days, respectively. Intraperitoneal administration of AM630, MDA7 or saline started on the same day after intracerebral microinjection of Aβ1-40. All drugs were prepared coded. Decoding was performed at the end of all experiments.
Hippocampal slice preparation. Brain slices containing hippocampus were prepared. Brain slices used for electrophysiological recording were obtained from all rats (n=10-12 rats per group) that had been subjected to the Morris water maze test. All rats were anesthetized with pentobarbital and then euthanized by decapitation. […]
Whole-cell patch clamp recordings in hippocampal slices. […] The series resistance was optimally compensated by ≥70% and constantly monitored throughout the experiments. […] Excitatory postsynaptic currents (EPSCs) were recorded in the CA1 area in the presence of GABAA antagonist bicuculline (30 μM). The evoked EPSCs were filtered at 2 kHz, digitized at 10 kHz, and acquired and analyzed using Axograph X software. The amplitude of EPSCs was monitored for a baseline period of at least 15 min. […]

[2] = tested on: CB2 receptor; assay: CB2 receptor expression in hippocampal CA1 area (immunostaining, immunoblotting); details: Aβ1-40-injected rats
Description: as §1, with “Intraperitoneal administration of AM630, MDA7 or saline started on the same day after intracerebral microinjection of Aβ1-40. All drugs were prepared coded. Decoding was performed at the end of all experiments.” left out
(§2) Immunostaining. […] Three to six sections from each rat were randomly selected and were analyzed using Leica DMLB fluorescence microscope (Leica Microsystems Wetzlar GmbH, Germany) by one investigator, who was blinded to the origin of tissue being examined. Images were quantified using MCID Core software version 7.0 (InterFocus Imaging Ltd, Cambridge, England). […]

[3] = tested on: CD11b; assay: CD11b immunoreactivity in hippocampal CA1 area (immunostaining, immunoblotting)
Description: as §1
Microinjection of amyloid fibrils into the hippocampal CA1 area. Rats were anesthetized with sodium pentobarbital (45 mg/kg i.p.) and restrained in a stereotaxic apparatus. Aβ1-40 fibrils were formed as described previously. […]
as §2

CC1(Cc2ccccc2)COc2cc(C(=O)N3CCCCC3)ccc21 (centres unmarked) [MDA7, 3-benzyl-3-methyl-2,3-dihydrobenzofuran-6-carboxylic acid-piperidine amide]
average LTP ([1]; 30 min after induction): 214.5±23.6%
average LTP ([1]; 60 min after induction): 195.7±21.8%
induction of LTP, treatment alone ([1]; hippocampal slices of control rats (no Aβ1-40)): failed to significantly affect
CB2 receptor expression (immunoblotting) ([2]; 15 mg/kg i.p. daily for 14 days): significantly reversed
CB2 expression (immunofluorescence) ([2]; 15 mg/kg i.p. for 14 days, vs saline): reduced CB2 expression
CD11b immunofluorescence intensity ([3]; Aβ1-40-injected rats, i.p. for 14 days, vs saline, hippocampal CA1): significantly less
CD11b protein expression (immunoblot) ([3]; Aβ-injected rats, 14 days i.p. (15 mg/kg), vs saline, hippocampal CA1): significantly attenuated
CD11B expression, treatment alone ([3]; rats without Aβ1-40, compared to control rats): no significant effect
